Experimental data taken from patent US5254546A, “Fused aryl substituted imidazole angiotensin II receptor inhibitors” (E. I. Du Pont de Nemours and Company, priority 1992, dated 1993).

Experiments:
[1] = test system: awake rats made hypertensive by ligation of the left renal artery; test: Antihypertensive effects in renal hypertensive rats (left renal artery ligation); type: in vivo, rat; settings: for Antihypertensive Effects in Renal Hypertensive Rats, Intravenous Activity: 3 mg/kg; for Antihypertensive Effects in Renal Hypertensive Rats, Oral Activity: 30 mg/kg
Procedure: Blood pressure levels after treatment are compared to pretreatment levels to determine the antihypertensive effects of the compounds which were tested.

Angiotensin II Receptor = test: AII receptor ligand-receptor binding assay (rat adrenal cortical microsomes, displacement of 3H-AII or 125I-AII); settings: Table 7, 1 hour, room temperature
Procedure: The hormone angiotensin II (AII) produces numerous biological responses (e.g. vasoconstriction) through stimulation of its receptors on cell membranes. For the purpose of identifying compounds such as AII antagonists which are capable of interacting with the AII receptor, a ligand-receptor binding assay was utilized for the initial screen. The assay was carried out according to the method described by [Glossmann et al., J. Biol. Chem., 249, 825 (1974)], but with some modifications. The reaction mixture contained rat adrenal cortical microsomes (source of AII receptor) in Tris buffer and 2 nM of ^3 H-AII or 0.05 nM ^125 I-AII with or without potential AII antagonist. This mixture was incubated for 1 hour at room temperature and the reaction was subsequently terminated by rapid filtration and rinsing through glass micro-fibre filter. Receptor-bound ^3 H-AII or ^125 I-AII trapped in filter was quantitated by scintillation counting. The inhibitory concentration (IC50) of potential AII antagonist which gives 50% displacement of the total specifically bound ^3 H-AII or ^125 I-AII is a measure of the affinity of such compound for the AII receptor.

mammals and man = settings: cited from earlier work
[2] = test system: renal vasoconstrictor effect of indomethacin and meclofenamate in dogs; settings: cited from earlier work
[3] = test system: effects of AII on the blood pressure of pithed rats; settings: cited from earlier work

Structure (SMILES) | Antihypertensive Effects in Renal Hypertensive Rats, Intravenous Activity [1] | IC50 (Angiotensin II Receptor) | Antihypertensive Effects in Renal Hypertensive Rats, Oral Activity [1] | further results
CCCc1nc(-c2cc3ccccc3s2)c(C=O)n1Cc1ccc(-c2ccccc2-c2nn[nH]n2)cc1 [Example 7] | NA (Not active at 3 mg/kg or 30 mg/kg dosage tested) | 29 nM |  | 
CCCc1nc(-c2ccc3c4c(cccc24)CC3)c(C=O)n1Cc1ccc(-c2ccccc2-c2nn[nH]n2)cc1 [Example 9] | NA (Not active at 3 mg/kg or 30 mg/kg dosage tested) | 490 nM |  | 
CNCC(=O)N[C@@H](CCCN=C(N)N)C(=O)N[C@H](C(=O)N[C@@H](Cc1ccc(O)cc1)C(=O)N[C@H](C(=O)N[C@@H](Cc1cnc[nH]1)C(=O)N1CCC[C@H]1C(=O)N[C@@H](C)C(=O)O)C(C)C)C(C)C [Saralasin, [Sar^1, Ala^8] AII] |  |  |  | oral effectiveness (mammals and man; oral doses): oral doses being ineffective; duration of pharmacological effects (mammals and man; parenteral administration): relatively short-lasting; lowering of arterial pressure (mammals and man; when the elevated pressure is dependent on circulating AII): lower arterial pressure in mammals and man; pressor effects (mammals and man; when the pressure is not sustained by AII): generally elicits pressor effects when the pressure is not sustained by AII; effect on renal vasoconstriction by NSAID [2]: inhibit the renal vasoconstrictor effect of indomethacin and meclofenamate in dogs; antagonism of AII effects on blood pressure [3]: one of the most potent competitive antagonists of the actions of AII
CCCc1nc(-c2ccc(F)c3ccccc23)c(C=O)n1Cc1ccc(-c2ccccc2-c2nn[nH]n2)cc1 [Example 8] | NA (Not active at 3 mg/kg or 30 mg/kg dosage tested) | 170 nM |  | 
CCCc1nc(-c2ccc3cc(OC)ccc3c2)c(C=O)n1Cc1ccc(-c2ccccc2-c2nn[nH]n2)cc1 [Example 11] | NA (Not active at 3 mg/kg or 30 mg/kg dosage tested) | 160 nM |  | 
CCCc1nc(-c2cccc3ccccc23)c(C=O)n1Cc1ccc(-c2ccccc2-c2nnn[nH]2)cc1 [Example 1, 4-(naphth-1-yl)-2-n-propyl-1-[(2'-(1H-tetrazol-5-yl)biphenyl-4-yl)methyl]imidazole-5-carboxaldehyde] | + (Significant decrease in blood pressure at 3.0 mg/kg or less) | 21 nM | + (Significant decrease in blood pressure at 30 mg/kg or less) | 
CCCc1nc(/C=C\c2cccc3ccccc23)c(C=O)n1Cc1ccc(-c2ccccc2-c2nn[nH]n2)cc1 [Example 95] | + (Significant decrease in blood pressure at 3.0 mg/kg or less) | 13 nM | + (Significant decrease in blood pressure at 30 mg/kg or less) | 
CCCc1nc(-c2cc3ccccc3c3ccccc23)c(C=O)n1Cc1ccc(-c2ccccc2-c2nn[nH]n2)cc1 [Example 24] | + (Significant decrease in blood pressure at 3.0 mg/kg or less) | 170 nM | NA (Not active at 3 mg/kg or 30 mg/kg dosage tested) | 
C[C@H](CS)C(=O)N1CCC[C@H]1C(=O)O [captopril] |  |  |  | effect on renal vasoconstriction by NSAID [2]: reverse the renal vasoconstrictor effect of indomethacin in dogs with non-hypotensive hemorrhage
CCCc1nc(-c2ccc3ccccc3c2)c(C=O)n1Cc1ccc(-c2ccccc2-c2nn[nH]n2)cc1 [Example 10] | NA (Not active at 3 mg/kg or 30 mg/kg dosage tested) | 99 nM | NA (Not active at 3 mg/kg or 30 mg/kg dosage tested) | 
CCCc1nc(/C=C/c2cccc3ccccc23)c(C=O)n1Cc1ccc(-c2ccccc2-c2nn[nH]n2)cc1 [Example 96] | + (Significant decrease in blood pressure at 3.0 mg/kg or less) | 560 nM |  | 
CCCc1nc(-c2cc3ccccc3o2)c(C=O)n1Cc1ccc(-c2ccccc2-c2nn[nH]n2)cc1 [Example 41] | + (Significant decrease in blood pressure at 3.0 mg/kg or less) | 110 nM | + (Significant decrease in blood pressure at 30 mg/kg or less) | 
CCCc1nc(/C=C\c2ccc3ccccc3c2)c(C=O)n1Cc1ccc(-c2ccccc2-c2nn[nH]n2)cc1 [Example 97] | + (Significant decrease in blood pressure at 3.0 mg/kg or less) | 540 nM |  | 
